For 31 compounds, IC50 results are on record in patent publication US10703764B2, “Benzopiperazine compositions as BET bromodomain inhibitors” (FORMA Therapeutics, Inc., priority 2013, dated 2020).

Molecules are shown by their SMILES.

One assay deals with MV4-11 cells. Nature of the assay: Oncology cell growth assay (3-day proliferation, CellTiter-Glo). The assay is classed as cell-based. Conditions: Homo sapiens, MV4-11, 72 h, AML cell line MV4-11, 72 hours, compounds grouped by IC50 range, read-out: MV4-11 IC50 (inhibition of proliferation, gIC50). As for the experimental part: The impact of Example compounds on cancer cell proliferation was determined using the acute myelocytic leukemia (AML) cell line MV4-11 (ATCC) in a 3-day proliferation assay. MV4-11 cells were maintained in RPMI 1640 media supplemented with 10% FBS at 37° C. and an atmosphere of 5% CO2. For compound testing, compound dilutions series were prepared in DMSO via a 3-fold serial dilution from 2 mM to 0.001 mM in 384-well white flat bottom plates. The final compound concentrations in the wells were 10, 3.3, 1.1, 0.37, 0.12, 0.041, 0.013 and 0.0045 μM. MV4-11 cells were plated at a density of 3000 cells/well in final volume of 50 μl culture media and incubated for 72 hours. […] Luminescent signal from the CellTiter-Glo assay was read on an EnVision multilabel plate reader (PerkinElmer). Values for the concentration that inhibited cell growth by 50% (gIC50) between the DMSO control and background control (no cells) were determined using IDBS Activity Base software with a four parameter logistic curve fit by the equation y=A+((B−A)/(1+((C/x)^D))), wherein A denotes the bottom plateau of the curve, B denotes the top plateau of the curve, C denotes the x value at the middle of the curve, D denotes the slope factor, x denotes the original known x values, and y denotes the original known y values. Data was fitted using the Levenburg Marquardt algorithm.
For orientation: Cellular ATP, detected with luciferase, serves as a proxy for viable cell number.

Another assay concerns the target T1, BRD4 BD2 (Homo sapiens, UniProt O60885).
T1 construct: made in house
Nature of the assay: AlphaScreen binding assay, BRD4 Bromodomain 2. Summed up: (§1)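 An AlphaScreen competition format was used with His-BRD4 BD1 or BD2 and biotin-H4 K5/8/12/16-acetyl peptide, each at matched final levels of 50 nM (BD1) or 100 nM (BD2). Incubation in HEPES/NaCl buffer with 0.1% BSA and 0.01% Triton X-100 ran ≥1 h before IC50 determination.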
For orientation: Alpha assays give light when donor and acceptor beads are brought close together.

The target in another assay is T2, BRD4 BD1 (Homo sapiens, UniProt O60885).
T2 construct: made in house
Nature of the assay: AlphaScreen binding assay, BRD4 Bromodomain 1. In outline:
as §1

In the case of `CC(=O)N1c2ccc(-c3cnn(C4CCC4)c3)cc2N(C(=O)OC2CCCC2)C[C@@H]1C` [Example I-25, (S)-cyclopentyl 4-acetyl-7-(1-cyclobutyl-1H-pyrazol-4-yl)-3-methyl-3,4-dihydroquinoxaline-1(2H)-carboxylate], the IC50 in the assay on MV4-11 cells is < 0.1 µM; at BRD4 BD2, < 0.05 µM; at BRD4 BD1, < 0.1 µM.
As for `CC(=O)N1c2ccc(-c3ccc(NS(C)(=O)=O)c(C)c3)cc2N(C(=O)OC(C)C)C[C@@H]1C` [Example I-1174], the IC50 with MV4-11 cells was in the range of 0.1 to 0.5 µM; on BRD4 BD2, 0.05 to 0.5 µM; on BRD4 BD1, 0.1 to 1 µM.
The like results for `CC(=O)N1c2ccc(-c3ccc(S(=O)(=O)NC(C)(C)C)cc3)cc2N(C(=O)C2CC2)C[C@@H]1C` [Example I-1127] were, in that order, 0.1 to 0.5 µM, 0.05 to 0.5 µM and 1 to 10 µM.
The corresponding values for `CC(=O)N1c2ccc(-c3cnn(C4CCCS(=O)(=O)C4)c3)cc2N(C(=O)OC2CC(F)(F)C2)C[C@@H]1C` (stereo partly drawn) [Example I-162, 3,3-difluorocyclobutyl (3S)-4-acetyl-7-[1-(1,1-dioxo-1λ^6-thian-3-yl)-1H-pyrazol-4-yl]-3-methyl-1,2,3,4-tetrahydroquinoxaline-1-carboxylate] are 0.1 to 0.5 µM, 0.05 to 0.5 µM and 0.1 to 1 µM.
The corresponding values for `CC(=O)N1c2ccc(-c3ccc(S(=O)(=O)n4cccn4)cc3)cc2N(C(=O)OC2CCCCC2)C[C@@H]1C` [Example I-1259] are 0.1 to 0.5 µM, 0.05 to 0.5 µM and 0.1 to 1 µM.
`CC(=O)N1c2ccc(-c3ccc(NS(=O)(=O)c4ccc(C)cc4)cc3)cc2N(C(=O)c2ccco2)C[C@@H]1C` [Example I-860]: the results for the IC50 in the assay on MV4-11 cells, on BRD4 BD2 and at BRD4 BD1 were < 0.1 µM, < 0.05 µM and 0.1 to 1 µM, respectively.
Consider `CNS(=O)(=O)c1ccc(-c2ccc3c(c2)N(C(=O)OC2CCOCC2)C[C@H](C)N3C(C)=O)cc1` [Example I-1262], for which the IC50 with MV4-11 cells lay in the range of 0.1 to 0.5 µM; on BRD4 BD2, 0.05 to 0.5 µM; on BRD4 BD1 it was 0.1 to 1 µM.
With `CC(=O)N1c2ccc(-c3ccc(N4CCCC4=O)cc3)cc2N(C(=O)C2CC2)C[C@@H]1C` [Example I-1131], the IC50 in the assay with MV4-11 cells is 0.1 to 0.5 µM; at BRD4 BD2, 0.05 to 0.5 µM; at BRD4 BD1, 1 to 10 µM.
The like results for `COc1cc(C)ccc1OC(=O)N1C[C@H](C)N(C(C)=O)c2ccc(-c3cnn(C4CC4)c3)cc21` [Example I-506] were, in that order, < 0.1 µM, 0.05 to 0.5 µM and 0.1 to 1 µM.
In the case of `CC(=O)N1c2ccc(-c3cnn(CCN(C)C)c3)cc2N(C(=O)C2CC2)C[C@@H]1C` [Example I-146, (S)-1-(4-(cyclopropanecarbonyl)-6-(1-(2-(dimethylamino)ethyl)-1H-pyrazol-4-yl)-2-methyl-3,4-dihydroquinoxalin-1 (2H)-yl)ethanone], the figures for the IC50 in the assay on MV4-11 cells, at BRD4 BD2 and at BRD4 BD1 were > 0.5 µM, 0.05 to 0.5 µM and 1 to 10 µM, respectively.
The corresponding values for `CC(=O)N1c2ccc(-c3ccc(NC(=O)N(C)C)cc3)cc2N(C(=O)c2ccco2)C[C@@H]1C` [Example I-284] are 0.1 to 0.5 µM, < 0.05 µM and 1 to 10 µM.
The corresponding values for `COC(=O)Nc1cc2c(cc1-c1cnn(C3CC3)c1)N(C(=O)OC(C)C)C[C@H](C)N2C(C)=O` [Example I-204, Isopropyl (S)-4-acetyl-7-(1-cyclopropyl-1H-pyrazol-4-yl)-6-((methoxycarbonyl)amino)-3-methyl-3,4-dihydroquinoxaline-1(2H)-carboxylate] are > 0.5 µM, 0.05 to 0.5 µM and 0.1 to 1 µM.
The like results for `CC(=O)N1c2ccc(-c3cccc(S(=O)(=O)NCCO)c3)cc2N(C(=O)OC2CCCCC2)C[C@@H]1C` [Example I-1255] were, in that order, 0.1 to 0.5 µM, 0.05 to 0.5 µM and 0.1 to 1 µM.
Turning to `COCCn1cc(-c2ccc3c(c2)N(C(=O)OC(C)C)C[C@H](C)N3C(C)=O)cn1` [Example I-17, (S)-isopropyl 4-acetyl-7-(1-(2-methoxyethyl)-1H-pyrazol-4-yl)-3-methyl-3,4-dihydroquinoxaline-1(2H)-carboxylate], the values for the IC50 with MV4-11 cells, at BRD4 BD2 and on BRD4 BD1 were 0.1 to 0.5 µM, < 0.05 µM and 0.1 to 1 µM, respectively.
For the compound `CC(=O)N1c2ccc(-c3cnn(Cc4ccno4)c3)cc2N(C(=O)OC(C)C)C[C@@H]1C` [Example I-131, (S)-isopropyl 4-acetyl-7-(1-(isoxazol-5-ylmethyl)-1H-pyrazol-4-yl)-3-methyl-3,4-dihydroquinoxaline-1(2H)-carboxylate], the IC50 in the assay on MV4-11 cells is 0.1 to 0.5 µM; at BRD4 BD2, 0.05 to 0.5 µM; on BRD4 BD1, 0.1 to 1 µM.
The like results for `CC(=O)N1c2ccc(-c3ccc(C(=O)N(C)C)cc3)cc2N(C(=O)c2ccco2)C[C@@H]1C` [Example I-809] were, in that order, 0.1 to 0.5 µM, < 0.05 µM and 0.1 to 1 µM.
In the case of `CC(=O)N1c2ccc(-c3ccc(N4CCS(=O)(=O)CC4)cc3)cc2N(C(=O)C2CC2)C[C@@H]1C` [Example I-435], the IC50 was 0.1 to 0.5 µM in the assay on MV4-11 cells, < 0.05 µM on BRD4 BD2 and 0.1 to 1 µM on BRD4 BD1.
The like results for `CC(=O)N1c2ccc(-c3cccc(S(=O)(=O)C4CC4)c3)cc2N(C(=O)OC(C)C)C[C@@H]1C` [Example I-1089] were, in that order, 0.1 to 0.5 µM, 0.05 to 0.5 µM and 0.1 to 1 µM.
The like results for `CC(=O)N1c2ccc(-c3ccc(C(=O)N(C)c4ccccn4)cc3)cc2N(C(=O)OC(C)C)C[C@@H]1C` [Example I-552] were, in that order, 0.1 to 0.5 µM, 0.05 to 0.5 µM and 0.1 to 1 µM.
The corresponding values for `COc1cc(F)ccc1OC(=O)N1C[C@H](C)N(C(C)=O)c2ccc(-c3cnn(C4CC4)c3)cc21` [Example I-1186] are 0.1 to 0.5 µM, < 0.05 µM and 0.1 to 1 µM.
In the case of `C[C@H]1CN(C(=O)C2CC2)c2cc(-c3ccc(C(=O)N4CCNCC4)cc3)ccc2N1C(=O)C1CC1` [Example I-438], the IC50 lay within 0.1 to 0.5 µM with MV4-11 cells, 0.05 to 0.5 µM on BRD4 BD2 and 0.1 to 1 µM at BRD4 BD1.
Consider `CC(C)OC(=O)N1C[C@H](C)N(C(=O)C2CC2)c2ccc(-c3ccc(N4CCCS4(=O)=O)cc3)cc21` [Example I-470], for which the IC50 was > 0.5 µM in the assay on MV4-11 cells, > 0.5 µM at BRD4 BD2 and 0.1 to 1 µM on BRD4 BD1.
Regarding `CC(=O)N1c2ccc(-c3cccc(S(C)(=O)=O)c3)cc2N(C(=O)OC2CCOCC2)C[C@@H]1C` [Example I-1226], the IC50 was > 0.5 µM in the assay on MV4-11 cells, 0.05 to 0.5 µM at BRD4 BD2 and 0.1 to 1 µM at BRD4 BD1.
The like results for `CC(=O)N1c2ccc(-c3ccc4ncccc4c3)cc2N(C(=O)COc2ccccc2)C[C@@H]1C` [Example I-791] were, in that order, > 0.5 µM, 0.05 to 0.5 µM and 1 to 10 µM.
As to `CC(=O)N1c2ccc(-c3cnn(C4CC4)c3)cc2N(C(=O)Oc2ccc(C)cc2Cl)C[C@@H]1C` [Example I-504], the results for the IC50 with MV4-11 cells, at BRD4 BD2 and at BRD4 BD1 were 0.1 to 0.5 µM, 0.05 to 0.5 µM and 0.1 to 1 µM, respectively.
The like results for `CC(=O)N1c2ccc(-c3cnn(C4CC4)c3)cc2N(c2nn(C)c3cccc(F)c23)C[C@@H]1C` [Example I-183, 1-[(2S)-6-(1-cyclopropyl-1H-pyrazol-4-yl)-4-(4-fluoro-1-methyl-1H-indazol-3-yl)-2-methyl-1,2,3,4-tetrahydroquinoxalin-1-yl]ethan-1-one] were, in that order, 0.1 to 0.5 µM, < 0.05 µM and 0.1 to 1 µM.
The like results for `CC(=O)N1c2ccc(-c3cnn(C4CCOCC4)c3)cc2N(C(=O)OC2CCCC2)C[C@@H]1C` [Example I-1147] were, in that order, < 0.1 µM, < 0.05 µM and < 0.1 µM.
The like results for `CC(=O)N1c2ccc(-c3cnn(C4CC4)c3)cc2N(C(=O)Oc2cncc(Cl)c2)C[C@@H]1C` [Example I-1187] were, in that order, > 0.5 µM, < 0.05 µM and 0.1 to 1 µM.
Take `CC(C)OC(=O)N1C[C@H](C)N(C(=O)C2CC2)c2ccc(-c3ccc(C(=O)N4CCN(S(C)(=O)=O)CC4)cc3)cc21` [Example I-572]: the IC50 in the assay on MV4-11 cells was 0.1 to 0.5 µM; on BRD4 BD2, > 0.5 µM; at BRD4 BD1, 0.1 to 1 µM.
The corresponding values for `COC(=O)N1c2ccc(-c3cnn(CC4CCOCC4)c3)cc2N(C(=O)OC(C)C)C[C@@H]1C` [Example I-641] are 0.1 to 0.5 µM, 0.05 to 0.5 µM and 0.1 to 1 µM.
The like results for `CC(=O)N1c2ccc(-c3cc(Cl)cc(S(C)(=O)=O)c3)cc2N(C(=O)OC(C)C)C[C@@H]1C` [Example I-1097] were, in that order, > 0.5 µM, > 0.5 µM and 1 to 10 µM.
